Reference: patent US11407711B2, “Benzamide compound and use thereof” (METISA BIOTECHNOLOGY CO., LTD., priority 2018, dated 2022)
Like-named read-outs stand apart in the source and are kept apart here.

Assays:
Assay type in all cases: in vivo
armyworm = assay: Insecticidal activity against armyworm (Airbrush spray on maize blade segments); conditions: 72 h, read-out: fatality rate against armyworm
Description: (§1) The compound to be tested was dissolved by a mixed solvent of acetone/methanol (1:1), and then diluted by water containing 0.1% (wt) Tween 80 to the required concentration.
(§2) An Airbrush spray method was adopted for the determination of the activity, with armyworm, Plutella xylostella and Chilo suppressalis as targets.
Determination method: maize blades were cut into 2 cm (length) segments; with the pressure of Airbrush spray being 10 psi (about 0.7 kg/cm^2), both sides of each blade segment were sprayed with the amount of 0.5 ml. After dried in the shade, each segment was inoculated with 10 3rd-instar larvaes, 3 repeats for each segment. And then, the treated segments were put into an observation room (25° C., relative humidity: 60-70%) for cultivation; the number of the survivals was surveyed 1 d, 2 d and 3 d after administration, and then the death rate was calculated.

Plutella xylostella = assay: Insecticidal activity against Plutella xylostella (Airbrush spray on cabbage leaf discs)
Description: as §1, §2
Determination method: cabbage blades were punched into 2 cm (diameter) leaf discs by a puncher; with the pressure of Airbrush spray being 10 psi (about 0.7 kg/cm^2), both sides of each leaf disc were sprayed with the amount of 0.5 ml. After dried in the shade, each leaf disc was inoculated with 10 3rd-instar larvaes, 3 repeats for each leaf disc. And then, the treated leaf discs were put into an observation room (25° C., relative humidity: 60-70%) for cultivation; the number of the survivals was surveyed 1 d, 2 d and 3 d after administration, and then the death rate was calculated.

Chilo suppressalis = assay: Insecticidal activity against Chilo suppressalis (spray on rice seedlings, stems fed to larvae); conditions: for pest or weed control at 1 µg/mL / pest or weed control at 4 µg/mL / pest or weed control at 40 µg/mL: Chilo suppressalis, 72 h, read-out: fatality rate against Chilo suppressalis
Description: as §1, §2
Determination method: 1) preparation of rice seedlings: rice was cultivated in small plastic cups (diameter: 4.5 cm and height: 4 cm) at a constant temperature room (temperature: 26-28° C., relative humidity: 60-80% around and illumination: 16 hL:8 hD), after the rice grew to a 4-5 leaf stage, vigorous and uniform-growth rice seedlings were selected and treated with an insecticide, 3 repeats for each treatment. 2) Preparation of pests for test: 3rd-instar larvaes of Chilo suppressalis fed continuously in the room. 3) Inoculation of pests on rice stems by spray. The whole plants of the rice seedlings were sprayed by a spray method uniformly, with the dose of 15 ml for each treatment. The blank control was treated first, and the above operation was repeated in an order of lower to higher test concentration. After sprayed, rice seedlings were placed in the shade to dry the insecticide liquor, and then stalks about 5 cm above the basal part of the stems were cut to be fed to the pests for test. Glass petri dishes (diameter: […]) were prepared, cushioned by filter paper at the bottom thereof, and subjected to water addition for moisturizing; about 20 pieces of rice stems were put in each dish and inoculated with 10 larvaes; then the petri dishes were closed by non-woven fabrics and placed in a constant temperature room for culture. The number of survivals was surveyed 3 d after administration.

[1] = 0.05 mg/L, 3 d after administration, 3rd-instar larvae
[2] = 0.1 mg/L, 3 d after administration, 3rd-instar larvae
[3] = 0.5 mg/L, 3 d after administration, 3rd-instar larvae
[4] = Plutella xylostella, foliar, 72 h, 0.5 mg/L, 3 d after administration, read-out: fatality rate against Plutella xylostella
[5] = Plutella xylostella, foliar, 72 h, 1 mg/L, 3 d after administration, read-out: fatality rate against Plutella xylostella
[6] = Plutella xylostella, foliar, 72 h, Table 71, 10 mg/L, 3 d after administration, read-out: Fatality rate (%, 3 d after administration) 10 mg/L
[7] = Plutella xylostella, foliar, 72 h, Table 73, 0.5 mg/L, 3 d after administration, read-out: Fatality rate (%, 3 d after administration) 0.5 mg/L
[8] = Plutella xylostella, foliar, 72 h, Table 73, 1 mg/L, 3 d after administration, read-out: Fatality rate (%, 3 d after administration) 1 mg/L
[9] = 1 mg/L, survivals surveyed 3 d after administration
[10] = 4 mg/L, survivals surveyed 3 d after administration
[11] = 40 mg/L, survivals surveyed 3 d after administration
[12] = Plutella xylostella, foliar, 72 h, read-out: Fatality rate (%, 3 d after administration) 0.5 mg/L, Table 73, 0.5 mg/L, 3 d after administration
[13] = Plutella xylostella, foliar, 72 h, read-out: Fatality rate (%, 3 d after administration) 1 mg/L, Table 73, 1 mg/L, 3 d after administration
[14] = Plutella xylostella, foliar, 72 h, read-out: Fatality rate (%, 3 d after administration) 10 mg/L, Table 71, 10 mg/L, 3 d after administration
[15] = Plutella xylostella, foliar, 72 h, read-out: fatality rate against Plutella xylostella, 0.5 mg/L, 3 d after administration
[16] = Plutella xylostella, foliar, 72 h, read-out: fatality rate against Plutella xylostella, 1 mg/L, 3 d after administration
[17] = Table 75, fast-acting efficacy, dose 0.5 mg/L
[18] = Table 76, fast-acting efficacy, dose 0.05 mg/L

N#CCN(C(=O)c1ccc(C#N)cc1)c1cccc(C(=O)Nc2c(Br)cc(C(F)(C(F)(F)F)C(F)(F)F)cc2Br)c1F [Compound 2.17]
≥ 90%: pest or weed control at 0.05 µg/mL (armyworm; [1]) | pest or weed control at 0.1 µg/mL (armyworm; [2]) | pest or weed control at 0.5 µg/mL (armyworm; [3]) | pest or weed control at 0.5 µg/mL (Plutella xylostella; [4]) | pest or weed control at 1 µg/mL (Plutella xylostella; [5]) | pest or weed control at 1 µg/mL (Chilo suppressalis; [9]) | pest or weed control at 4 µg/mL (Chilo suppressalis; [10]) | pest or weed control at 40 µg/mL (Chilo suppressalis; [11])
100%: pest or weed control at 10 µg/mL (Plutella xylostella; [6]) | pest or weed control at 0.5 µg/mL (Plutella xylostella; [7]) | pest or weed control at 1 µg/mL (Plutella xylostella; [8])

N#CCN(C(=O)c1ccc(C(F)(F)F)cc1)c1cccc(C(=O)Nc2c(Br)cc(C(F)(C(F)(F)F)C(F)(F)F)cc2Br)c1F [Compound 2.43]
100%: pest or weed control at 10 µg/mL (Plutella xylostella; [6]) | pest or weed control at 0.5 µg/mL (Plutella xylostella; [7]) | pest or weed control at 1 µg/mL (Plutella xylostella; [8])
≥ 90%: pest or weed control at 0.05 µg/mL (armyworm; [1]) | pest or weed control at 0.1 µg/mL (armyworm; [2]) | pest or weed control at 0.5 µg/mL (armyworm; [3]) | pest or weed control at 0.5 µg/mL (Plutella xylostella; [4]) | pest or weed control at 1 µg/mL (Plutella xylostella; [5]) | pest or weed control at 1 µg/mL (Chilo suppressalis; [9]) | pest or weed control at 4 µg/mL (Chilo suppressalis; [10]) | pest or weed control at 40 µg/mL (Chilo suppressalis; [11])

N#CCN(C(=O)c1ccccc1)c1cccc(C(=O)Nc2c(Br)cc(C(F)(C(F)(F)F)C(F)(F)F)cc2Br)c1F [Compound 2.321]
≥ 90%: pest or weed control at 0.05 µg/mL (armyworm) | pest or weed control at 0.1 µg/mL (armyworm) | pest or weed control at 0.5 µg/mL (armyworm) | pest or weed control at 0.5 µg/mL (Plutella xylostella; [15]) | pest or weed control at 1 µg/mL (Plutella xylostella; [16]) | pest or weed control at 1 µg/mL (Chilo suppressalis) | pest or weed control at 4 µg/mL (Chilo suppressalis) | pest or weed control at 40 µg/mL (Chilo suppressalis)
95%: Fatality rate (%) 2 d after administration (Plutella xylostella; [17])
100%: pest or weed control at 0.5 µg/mL (Plutella xylostella; [12]) | pest or weed control at 1 µg/mL (Plutella xylostella; [13]) | pest or weed control at 10 µg/mL (Plutella xylostella; [14]) | Fatality rate (%) 3 d after administration (Plutella xylostella; Table 75, fast-acting efficacy, dose 0.5 mg/L, 3 d after administration) | Fatality rate (%, 3 d after administration) 2.5 mg/L (Chilo suppressalis; Table 77, 2.5 mg/L, 3 d after administration) | Fatality rate (%, 3 d after administration) 5 mg/L (Chilo suppressalis; Table 77, 5 mg/L, 3 d after administration)
80%: Fatality rate (%) 1 d after administration (Plutella xylostella; [17])
95.5%: Fatality rate (%, 3 d after administration) 1.25 mg/L (Chilo suppressalis; Table 77, 1.25 mg/L, 3 d after administration)

N#CCN(C(=O)c1ccccc1)c1cccc(C(=O)Nc2c(Cl)cc(C(F)(C(F)(F)F)C(F)(F)F)cc2Cl)c1F [Compound 3.321]
≥ 90%: pest or weed control at 0.1 µg/mL (armyworm) | pest or weed control at 0.5 µg/mL (armyworm) | pest or weed control at 1 µg/mL (Plutella xylostella; [16]) | pest or weed control at 4 µg/mL (Chilo suppressalis) | pest or weed control at 40 µg/mL (Chilo suppressalis)
100%: pest or weed control at 10 µg/mL (Plutella xylostella; [14])

Cc1cc(C(F)(C(F)(F)F)C(F)(F)F)cc(Br)c1NC(=O)c1cccc(N(CC#N)C(=O)c2ccccc2)c1F [Compound 6.321]
98.5%: pest or weed control at 1 µg/mL (Plutella xylostella; Plutella xylostella, foliar, 72 h, read-out: Fatality rate (%, 3 d after administration) 1 mg/L, Table 72, 1 mg/L, 3 d after administration)
100%: pest or weed control at 10 µg/mL (Plutella xylostella; [14]) | Fatality rate (%, 3 d after administration) 5 mg/L (Plutella xylostella; Table 72, 5 mg/L, 3 d after administration)
≥ 90%: pest or weed control at 0.5 µg/mL (armyworm) | pest or weed control at 1 µg/mL (Plutella xylostella; [16]) | pest or weed control at 40 µg/mL (Chilo suppressalis)

N#CCN(C(=O)c1ccccc1)c1cccc(C(=O)Nc2c(Cl)cc(C(F)(C(F)(F)F)C(F)(F)F)cc2Br)c1F [Compound 7.321]
≥ 90%: pest or weed control at 0.1 µg/mL (armyworm) | pest or weed control at 0.5 µg/mL (armyworm) | pest or weed control at 1 µg/mL (Plutella xylostella; [16]) | pest or weed control at 4 µg/mL (Chilo suppressalis) | pest or weed control at 40 µg/mL (Chilo suppressalis)
100%: pest or weed control at 10 µg/mL (Plutella xylostella; [14])

N#CCN(C(=O)c1ccccc1)c1cccc(C(=O)Nc2c(Br)cc(C(F)(C(F)(F)F)C(F)(F)F)cc2I)c1F [Compound 8.321]
≥ 90%: pest or weed control at 0.1 µg/mL (armyworm) | pest or weed control at 0.5 µg/mL (armyworm) | pest or weed control at 1 µg/mL (Plutella xylostella; [16]) | pest or weed control at 4 µg/mL (Chilo suppressalis) | pest or weed control at 40 µg/mL (Chilo suppressalis)
100%: pest or weed control at 10 µg/mL (Plutella xylostella; [14])

N#CCN(C(=O)c1ccccc1)c1cccc(C(=O)Nc2c(Br)cc(C(F)(C(F)(F)F)C(F)(F)F)cc2C(F)(F)F)c1F [Compound 9.321]
≥ 90%: pest or weed control at 0.05 µg/mL (armyworm) | pest or weed control at 0.1 µg/mL (armyworm) | pest or weed control at 0.5 µg/mL (armyworm) | pest or weed control at 0.05 µg/mL (Plutella xylostella; Plutella xylostella, foliar, 72 h, read-out: fatality rate against Plutella xylostella, 0.05 mg/L, 3 d after administration) | pest or weed control at 0.5 µg/mL (Plutella xylostella; [15]) | pest or weed control at 1 µg/mL (Plutella xylostella; [16]) | pest or weed control at 1 µg/mL (Chilo suppressalis) | pest or weed control at 4 µg/mL (Chilo suppressalis) | pest or weed control at 40 µg/mL (Chilo suppressalis)
100%: pest or weed control at 0.5 µg/mL (Plutella xylostella; Plutella xylostella, foliar, 72 h, read-out: Fatality rate (%, 3 d after administration) 0.5 mg/L, Table 74, 0.5 mg/L, 3 d after administration) | pest or weed control at 10 µg/mL (Plutella xylostella; [14]) | Fatality rate (%, 3 d after administration) 0.05 mg/L (Plutella xylostella; Table 74, 0.05 mg/L, 3 d after administration) | Fatality rate (%) 3 d after administration (Plutella xylostella; Table 76, fast-acting efficacy, dose 0.05 mg/L, 3 d after administration) | Fatality rate (%, 3 d after administration) 1.25 mg/L (Chilo suppressalis; Table 78, 1.25 mg/L, 3 d after administration) | Fatality rate (%, 3 d after administration) 2.5 mg/L (Chilo suppressalis; Table 78, 2.5 mg/L, 3 d after administration)
98%: Fatality rate (%, 3 d after administration) 0.625 mg/L (Chilo suppressalis; Table 78, 0.625 mg/L, 3 d after administration)
70%: Fatality rate (%) 1 d after administration (Plutella xylostella; [18])
95%: Fatality rate (%) 2 d after administration (Plutella xylostella; [18])

N#CCN(C(=O)c1cccc(NC(=O)c2ccccc2)c1F)c1c(Br)cc(C(F)(C(F)(F)F)C(F)(F)F)cc1Br [Compound 16.321]
100%: pest or weed control at 0.5 µg/mL (Plutella xylostella; [12]) | pest or weed control at 1 µg/mL (Plutella xylostella; [13]) | pest or weed control at 10 µg/mL (Plutella xylostella; [14])
≥ 90%: pest or weed control at 0.1 µg/mL (armyworm) | pest or weed control at 0.5 µg/mL (armyworm) | pest or weed control at 0.5 µg/mL (Plutella xylostella; [15]) | pest or weed control at 1 µg/mL (Plutella xylostella; [16]) | pest or weed control at 4 µg/mL (Chilo suppressalis) | pest or weed control at 40 µg/mL (Chilo suppressalis)
